# Measured values from patent US9969752B2, “Inhibitors of HIF prolyl hydroxylase” (MERCK SHARP & DOHME CORP., priority 2014, dated 2018).
# pIC50: −log10 of the molar value.
# Biological target: T1, Human HIF-PHD2 (Homo sapiens, UniProt Q9GZT9)
# T1 construct: FLAG-tagged full length PHD2 expressed in and purified from baculovirus-infected Sf9 cells; FLAG; made in house; host or cells: baculovirus-infected Sf9 cells
# Assay: Inhibition of the hydroxylation of a HIF peptide by PHD2 (time resolved fluorescence, 384-well)
# Type: biochemical
# Conditions: FLAG-tagged full length PHD2; 0.2 μM 2-oxoglutarate, 0.5 μM HIF-1α peptide; 45 minutes at room temperature; read-out: Human HIF-PHD2 IC50
# T1 sequence (Q9GZT9 whole entry): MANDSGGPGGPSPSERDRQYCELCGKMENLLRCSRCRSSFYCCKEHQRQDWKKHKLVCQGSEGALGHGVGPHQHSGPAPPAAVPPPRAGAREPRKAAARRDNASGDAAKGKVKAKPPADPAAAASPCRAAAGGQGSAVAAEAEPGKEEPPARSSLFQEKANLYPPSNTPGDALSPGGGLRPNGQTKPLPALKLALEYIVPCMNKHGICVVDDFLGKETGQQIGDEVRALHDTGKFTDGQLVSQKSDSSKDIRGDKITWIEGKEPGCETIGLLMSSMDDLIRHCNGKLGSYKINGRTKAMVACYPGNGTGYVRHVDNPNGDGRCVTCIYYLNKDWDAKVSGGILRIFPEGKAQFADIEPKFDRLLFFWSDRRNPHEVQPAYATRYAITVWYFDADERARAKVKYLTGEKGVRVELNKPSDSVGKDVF
row,SMILES,pIC50
1,"CN1c2cc(F)cc3c(O)c(C(=O)NCC(=O)O)c(=O)n(c23)CC1c1ccc(C(F)(F)F)cc1 (centres unmarked) [Example 123, 2-(9-Fluoro-7-hydroxy-1-methyl-5-oxo-2-(4-(trifluoromethyl)phenyl)-1,2,3,5-tetrahydropyrido[1,2,3-de]quinoxaline-6-carboxamido)acetic acid]",7.82
2,"O=C(O)CNC(=O)c1c(O)c2cccc3c2n(c1=O)CC(c1ccc(C(F)(F)F)cc1)N3 (centres unmarked) [Example 108, 2-(7-Hydroxy-5-oxo-2-(4-(trifluoromethyl)phenyl)-1,2,3,5-tetrahydropyrido[1,2,3-de]quinoxaline-6-carboxamido)acetic acid]",8.19
3,"O=C(O)CNC(=O)c1c(O)c2ccc(F)c3c2n(c1=O)CC(c1ccc(C(F)(F)F)cc1)N3 (centres unmarked) [Example 116, 2-(10-Fluoro-7-hydroxy-5-oxo-2-(4-(trifluoromethyl)phenyl)-1,2,3,5-tetrahydropyrido[1,2,3-de]quinoxaline-6-carboxamido)acetic acid]",8.06
4,"O=C(O)CNC(=O)c1c(O)c2cccc3c2n(c1=O)C(c1ccc(C(F)(F)F)cc1)CO3 (single isomer, unassigned) [Example 1b, 2-(7-Hydroxy-5-oxo-3-(4-(trifluoromethyl)phenyl)-3,5-dihydro-2H-[1,4]oxazino[2,3,4-ij]quinoline-6-carboxamido)acetic acid]",7.88
5,"O=C(O)CNC(=O)c1c(O)c2c(OC(F)(F)F)ccc3c2n(c1=O)CC(c1ccc(C(F)(F)F)cc1)O3 (single isomer, unassigned) [Example 86, 2-(7-Hydroxy-5-oxo-8-(trifluoromethoxy)-2-(4-(trifluoromethyl)phenyl)-3,5-dihydro-2H-[1,4]oxazino[2,3,4-ij]quinoline-6-carboxamido)acetic acid]",7.85
6,"Cc1ccc2c(O)c(C(=O)NCC(=O)O)c(=O)n3c2c1CCC3 [Example 46, 2-(1-Hydroxy-8-methyl-3-oxo-3,5,6,7-tetrahydropyrido[3,2,1-ij]quinoline-2-carboxamido)acetic acid]",7.74
7,"Cc1cc2c3c(c1)c(O)c(C(=O)NCC(=O)O)c(=O)n3CC(c1ccc(C(F)(F)F)cc1)O2 (centres unmarked) [Example 19, 2-(7-Hydroxy-9-methyl-5-oxo-2-(4-(trifluoromethyl)phenyl)-3,5-dihydro-2H-[1,4]oxazino[2,3,4-ij]quinoline-6-carboxamido)acetic acid]",8.25
8,"N#Cc1ccc(C2Cn3c(=O)c(C(=O)NCC(=O)O)c(O)c4c(OC(F)(F)F)ccc(c43)O2)cc1 (single isomer, unassigned) [Example 88, 2-(2-(4-Cyanophenyl)-7-hydroxy-5-oxo-8-(trifluoromethoxy)-3,5-dihydro-2H-[1,4]oxazino[2,3,4-ij]quinoline-6-carboxamido)acetic acid]",8.07
9,"O=C(O)CNC(=O)c1c(O)c2cccc3c2n(c1=O)CC(c1cncs1)N3 (centres unmarked) [Example 110, 2-(7-Hydroxy-5-oxo-2-(thiazol-5-yl)-1,2,3,5-tetrahydropyrido[1,2,3-de]quinoxaline-6-carboxamido)acetic acid]",7.92
10,"CC(O)(CO)c1cc2c3c(c1)c(O)c(C(=O)NCC(=O)O)c(=O)n3C(Cc1ccc(C(F)(F)F)cc1)CO2 (centres unmarked) [Example 8, 2-(9-(1,2-Dihydroxypropan-2-yl)-7-hydroxy-5-oxo-3-(4-(trifluoromethyl)benzyl)-3,5-dihydro-2H-[1,4]oxazino[2,3,4-ij]quinoline-6-carboxamido)acetic acid]",7.52
11,"CN1CC(c2ccc(C(F)(F)F)nc2)n2c(=O)c(C(=O)NCC(=O)O)c(O)c3cccc1c32 (centres unmarked) [Example 128, 2-(7-Hydroxy-1-methyl-5-oxo-3-(6-(trifluoromethyl)pyridin-3-yl)-1,2,3,5-tetrahydropyrido[1,2,3-de]quinoxaline-6-carboxamido)acetic acid]",8.16
12,"O=C(O)CNC(=O)c1c(O)c2cccc3c2n(c1=O)C(c1ccc(Br)cc1)CO3 (racemic) [Example 133, 2-(3-(4-Bromophenyl)-7-hydroxy-5-oxo-3,5-dihydro-2H-[1,4]oxazino[2,3,4-ij]quinoline-6-carboxamido)acetic acid]",7.77
13,"O=C(O)CNC(=O)c1c(O)c2cccc3c2n(c1=O)CC(c1cncs1)C3 (racemic) [Example 50, 2-(1-Hydroxy-3-oxo-6-(thiazol-5-yl)-3,5,6,7-tetrahydropyrido[3,2,1-ij]quinoline-2-carboxamido)acetic acid]",8.14

# The remaining lines, values ahead:
row,pIC50,SMILES
1,8.27,"Cc1ccc2c(O)c(C(=O)NCC(=O)O)c(=O)n3c2c1OC(c1ccc(C(F)(F)F)cc1)C3 (centres unmarked) [Example 25, 2-(7-Hydroxy-10-methyl-5-oxo-2-(4-(trifluoromethyl)phenyl)-3,5-dihydro-2H-[1,4]oxazino[2,3,4-ij]quinoline-6-carboxamido)acetic acid]"
2,8.34,"O=C(O)CNC(=O)c1c(O)c2cc(F)cc3c2n(c1=O)CC(c1ccc(C(F)(F)F)cc1)N3 (centres unmarked) [Example 120, 2-(9-Fluoro-7-hydroxy-5-oxo-2-(4-(trifluoromethyl)phenyl)-1,2,3,5-tetrahydropyrido[1,2,3-de]quinoxaline-6-carboxamido)acetic acid]"
3,8.47,"O=C(O)CNC(=O)c1c(O)c2cccc3c2n(c1=O)CC(c1ccc(C(F)(F)F)nc1)S3 (centres unmarked) [Example 103, 2-(7-Hydroxy-5-oxo-2-(6-(trifluoromethyl)pyridin-3-yl)-3,5-dihydro-2H-[1,4]thiazino[2,3,4-ij]quinoline-6-carboxamido)acetic acid]"
4,8.51,"N#Cc1cc2c3c(c1)c(O)c(C(=O)NCC(=O)O)c(=O)n3C(c1ccc(C(F)(F)F)cc1)CN2 (centres unmarked) [Example 92, 2-(9-Cyano-7-hydroxy-5-oxo-3-(4-(trifluoromethyl)phenyl)-1,2,3,5-tetrahydropyrido[1,2,3-de]quinoxaline-6-carboxamido)acetic acid]"
5,8.60,"O=C(O)CNC(=O)c1c(O)c2c(Br)ccc3c2n(c1=O)CC(c1ccc(Br)cc1)O3 (centres unmarked) [Example 55, 2-(8-Bromo-2-(4-bromophenyl)-7-hydroxy-5-oxo-3,5-dihydro-2H-[1,4]oxazino[2,3,4-ij]quinoline-6-carboxamido)acetic acid]"
6,8.85,"CS(=O)(=O)c1ccc(C2Cn3c(=O)c(C(=O)NCC(=O)O)c(O)c4ccc(C(F)(F)F)c(c43)O2)cc1 (centres unmarked) [Example 76, 2-(7-Hydroxy-2-(4-(methylsulfonyl)phenyl)-5-oxo-10-(trifluoromethyl)-3,5-dihydro-2H-[1,4]oxazino[2,3,4-ij]quinoline-6-carboxamido)acetic acid]"
7,9.00,"CS(=O)(=O)c1ccc2c(O)c(C(=O)NCC(=O)O)c(=O)n3c2c1OCC3Cc1ccc(C(F)(F)F)cc1 (centres unmarked) [Example 31, 2-(7-Hydroxy-10-(methylsulfonyl)-5-oxo-3-(4-(trifluoromethyl)benzyl)-3,5-dihydro-2H-[1,4]oxazino[2,3,4-ij]quinoline-6-carboxamido)acetic acid]"
8,9.10,"O=C(O)CNC(=O)c1c(O)c2cccc3c2n(c1=O)CC(c1ccc(C(F)(F)F)cc1)S3(=O)=O (centres unmarked) [Example 60, 2-(7-Hydroxy-1,1-dioxido-5-oxo-2-(4-(trifluoromethyl)phenyl)-3,5-dihydro-2H-[1,4]thiazino[2,3,4-ij]quinoline-6-carboxamido)acetic acid]"
9,9.30,"N#Cc1ccc2c(O)c(C(=O)NCC(=O)O)c(=O)n3c2c1OC(c1ccc(C(F)(F)F)cc1)C3 (single isomer, unassigned) [Example 20, 2-(10-Cyano-7-hydroxy-5-oxo-2-(4-(trifluoromethyl)phenyl)-3,5-dihydro-2H-[1,4]oxazino[2,3,4-ij]quinoline-6-carboxamido)acetic acid]"

# Same assay, conditions: FLAG-tagged full length PHD2; 0.2 μM 2-oxoglutarate, 0.5 μM HIF-1α peptide; 45 minutes at room temperature; read-out: MS m/z (M + 1)+ and human HIF-PHD2 IC50
row,pIC50,SMILES
1,8.09,"Nc1ccc(-c2ccc3c(O)c(C(=O)NCC(=O)O)c(=O)n4c3c2OCC4)cn1 [Example 156, N-{[10-(6-aminopyridin-3-yl)-7-hydroxy-5-oxo-2,3-dihydro-5H-[1,4]oxazino[2,3,4-ij]quinolin-6-yl]carbonyl}glycine]"
2,8.42,"O=C(O)CNC(=O)c1c(O)c2ccc(F)c3c2n(c1=O)C(c1cncs1)CO3 (centres unmarked) [Example 174, 2-(10-fluoro-7-hydroxy-5-oxo-3-(thiazol-5-yl)-3,5-dihydro-2H-[1,4]oxazino[2,3,4-ij]quinoline-6-carboxamido)acetic acid]"
3,8.00,"Cc1ccc(-c2ccc(C3COc4cccc5c(O)c(C(=O)NCC(=O)O)c(=O)n3c45)cc2)cc1 (centres unmarked) [Example 144, N-{[7-hydroxy-3-(4′-methylbiphenyl-4-yl)-5-oxo-2,3-dihydro-5H-[1,4]oxazino[2,3,4-ij]quinolin-6-yl]carbonyl}glycine]"
4,7.74,"COc1ncccc1-c1ccc(C2COc3cccc4c(O)c(C(=O)NCC(=O)O)c(=O)n2c34)cc1 (centres unmarked) [Example 147, N-({7-hydroxy-3-[4-(2-methoxypyridin-3-yl)phenyl]-5-oxo-2,3-dihydro-5H-[1,4]oxazino[2,3,4-ij]quinolin-6-yl}carbonyl)glycine]"
5,8.14,"O=C(O)CNC(=O)c1c(O)c2c(F)ccc3c2n(c1=O)C(c1cncs1)CO3 (centres unmarked) [Example 172, 2-(8-fluoro-7-hydroxy-5-oxo-3-(thiazol-5-yl)-3,5-dihydro-2H-[1,4]oxazino[2,3,4-ij]quinoline-6-carboxamido)acetic acid]"
6,7.47,"N#Cc1ccc(C2Cn3c(=O)c(C(=O)NCC(=O)O)c(O)c4c(OC(F)(F)F)ccc(c43)O2)cc1 (single isomer, unassigned) [Example 89, 2-(2-(4-cyanophenyl)-7-hydroxy-5-oxo-8-(trifluoromethoxy)-3,5-dihydro-2H-[1,4]oxazino[2,3,4-ij]quinoline-6-carboxamido)acetic acid]"
7,8.33,"O=C(O)CNC(=O)c1c(O)c2cccc3c2n(c1=O)C(c1ccc(-c2ccc(C(F)(F)F)nc2)cc1)CO3 (centres unmarked) [Example 143, N-[(7-hydroxy-5-oxo-3-{4-[6-(trifluoromethyl)pyridin-3-yl]phenyl}-2,3-dihydro-5H-[1,4]oxazino[2,3,4-ij]quinolin-6-yl)carbonyl]glycine]"
